Measured values taken from US20240217989A1, “Heteroaryl Fluoroalkenes As DGK Inhibitors” (Incyte Corporation, priority 2022, published 2024).
pIC50: −log10 of the molar value.

What was measured:
DGKα = target: T1, DGKα (Homo sapiens, UniProt P23743); test: In vitro DGKα inhibition assay (ADP-Glo); format: biochemical; settings: His-tagged human recombinant enzyme; 0.1 nM DGKα, 50 μM ATP, 20 μM DLG; 90 minute incubation; ADP-Glo luminescence
T1 construct: His; purchased Signal Chem D21-10BH
How it was run: (§1)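 His-tagged human recombinant enzymes with DLG lipid substrate (20 μM) in Tris pH 7.5 buffer with MgCl2/CaCl2; DGKα 0.1 nM with 50 μM ATP, DGKζ 0.4 nM with 30 μM ATP.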

DGKζ = DGKζ (Homo sapiens, UniProt Q13574); test: In vitro DGKζ inhibition assay (ADP-Glo); format: biochemical; settings: His-tagged human recombinant enzyme; 0.4 nM DGKζ, 30 μM ATP, 20 μM DLG; 90 minute incubation; ADP-Glo luminescence
Chain of DGKζ (Q13574 whole entry): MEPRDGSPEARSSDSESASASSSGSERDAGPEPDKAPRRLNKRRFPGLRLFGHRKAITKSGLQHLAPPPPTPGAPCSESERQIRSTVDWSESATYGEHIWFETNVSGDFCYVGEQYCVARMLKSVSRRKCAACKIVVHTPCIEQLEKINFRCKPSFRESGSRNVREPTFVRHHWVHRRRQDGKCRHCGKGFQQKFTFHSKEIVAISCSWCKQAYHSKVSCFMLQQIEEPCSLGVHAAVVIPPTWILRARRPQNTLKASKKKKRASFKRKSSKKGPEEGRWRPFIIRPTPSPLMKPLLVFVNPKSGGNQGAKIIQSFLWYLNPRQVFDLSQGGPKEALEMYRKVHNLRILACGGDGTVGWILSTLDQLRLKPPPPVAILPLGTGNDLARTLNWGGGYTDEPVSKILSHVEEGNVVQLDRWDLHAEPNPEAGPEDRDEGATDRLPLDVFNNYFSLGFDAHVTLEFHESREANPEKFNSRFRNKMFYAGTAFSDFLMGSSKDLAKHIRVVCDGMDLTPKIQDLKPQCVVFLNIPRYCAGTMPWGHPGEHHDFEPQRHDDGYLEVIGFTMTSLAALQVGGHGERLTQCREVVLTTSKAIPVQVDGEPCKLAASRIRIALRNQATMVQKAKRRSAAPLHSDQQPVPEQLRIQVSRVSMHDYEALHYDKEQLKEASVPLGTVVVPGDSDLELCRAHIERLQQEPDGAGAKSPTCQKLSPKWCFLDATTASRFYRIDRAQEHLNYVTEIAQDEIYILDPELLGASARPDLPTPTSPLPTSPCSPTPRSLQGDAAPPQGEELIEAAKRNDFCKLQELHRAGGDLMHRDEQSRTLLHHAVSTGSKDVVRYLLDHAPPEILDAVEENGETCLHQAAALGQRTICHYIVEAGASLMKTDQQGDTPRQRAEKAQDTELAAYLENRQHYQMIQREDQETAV
How it was run: as §1

T1 sequence (P23743 whole entry): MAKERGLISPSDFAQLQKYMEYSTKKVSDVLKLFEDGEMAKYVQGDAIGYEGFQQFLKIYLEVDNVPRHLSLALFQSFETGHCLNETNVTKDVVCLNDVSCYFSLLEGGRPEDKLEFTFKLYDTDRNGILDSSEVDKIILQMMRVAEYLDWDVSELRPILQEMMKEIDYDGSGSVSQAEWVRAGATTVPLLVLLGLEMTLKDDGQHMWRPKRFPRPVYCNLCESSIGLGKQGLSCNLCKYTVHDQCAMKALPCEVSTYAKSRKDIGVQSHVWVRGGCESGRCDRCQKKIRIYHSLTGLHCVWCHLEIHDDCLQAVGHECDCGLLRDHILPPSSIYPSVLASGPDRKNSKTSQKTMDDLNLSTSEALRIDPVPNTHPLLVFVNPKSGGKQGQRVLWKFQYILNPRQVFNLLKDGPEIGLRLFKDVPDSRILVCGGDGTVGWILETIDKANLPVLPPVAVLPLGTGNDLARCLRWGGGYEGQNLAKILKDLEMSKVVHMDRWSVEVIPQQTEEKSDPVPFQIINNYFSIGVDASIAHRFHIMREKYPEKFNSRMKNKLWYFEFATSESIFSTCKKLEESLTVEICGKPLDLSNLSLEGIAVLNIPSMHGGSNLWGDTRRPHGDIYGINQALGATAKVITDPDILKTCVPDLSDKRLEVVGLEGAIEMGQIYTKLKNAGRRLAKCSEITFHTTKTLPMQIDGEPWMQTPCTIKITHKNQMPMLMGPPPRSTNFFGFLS

SMILES	pIC50 (DGKα)	pIC50 (DGKζ)
F/C(=C\c1ccc(OC2CCC2)c(C(F)(F)F)c1N1CCCC2(CCN(CC3CC3)CC2)C1)c1nccc(-c2ccnnc2)n1 [Example 52, (Z)-2-(3-Cyclobutoxy-6-(2-fluoro-2-(4-(pyridazin-4-yl)pyrimidin-2-yl)vinyl)-2-(trifluoromethyl)phenyl)-9-(cyclopropylmethyl)-2,9-diazaspiro[5.5]undecane]	≥ 7.70	≥ 7.70
CCN1CCC2(CCCN(c3c(/C=C(\F)c4nccc(-c5ccnnc5)n4)ccc(OC4CC5CC(C5)C4)c3C(F)(F)F)C2)CC1 (stereo not drawn) [Example 54, (Z)-2-(3-(Bicyclo[3.1.1]heptan-3-yloxy)-6-(2-fluoro-2-(4-(pyridazin-4-yl)pyrimidin-2-yl)vinyl)-2-(trifluoromethyl)phenyl)-9-ethyl-2,9-diazaspiro[5.5]undecane]	≥ 7.70	≥ 7.70
F/C(=C\c1ccc(Oc2ccccc2F)c(C(F)(F)F)c1N1CCCC2(CCN(CC3CC3)CC2)C1)c1nccc(-c2cnsc2)n1 [Example 55, (Z)-4-(2-(2-(2-(9-(Cyclopropylmethyl)-2,9-diazaspiro[5.5]undecan-2-yl)-4-(2-fluorophenoxy)-3-(trifluoromethyl)phenyl)-1-fluorovinyl)pyrimidin-4-yl)isothiazole]	≥ 7.70	≥ 7.70
CCN1CCC2(CCCN(c3c(/C=C(\F)c4cncc(N5CCC(F)(F)C5)n4)ccc(Oc4ccccc4F)c3C(F)(F)F)C2)CC1 [Example 58, (Z)-2-(6-(2-(6-(3,3-Difluoropyrrolidin-1-yl)pyrazin-2-yl)-2-fluorovinyl)-3-(2-fluorophenoxy)-2-(trifluoromethyl)phenyl)-9-ethyl-2,9-diazaspiro[5.5]undecane]	≥ 7.70	≥ 7.70
F/C(=C\c1ccc(Oc2ccccc2F)c(C(F)(F)F)c1N1CCCC2(CCN(CC3CC3)CC2)C1)c1cncc(N2CCC(F)(F)C2)n1 [Example 59, (Z)-9-(Cyclopropylmethyl)-2-(6-(2-(6-(3,3-difluoropyrrolidin-1-yl)pyrazin-2-yl)-2-fluorovinyl)-3-(2-fluorophenoxy)-2-(trifluoromethyl)phenyl)-2,9-diazaspiro[5.5]undecane]	≥ 7.70	≥ 7.70

Other lines, results leading:

pIC50 (DGKα)	pIC50 (DGKζ)	SMILES
≥ 7.70	≥ 7.70	F/C(=C\c1ccc(OC2CCCC2)c(C(F)(F)F)c1N1CCCC2(CCN(CC3CC3)CC2)C1)c1nccc(-c2ccnnc2)n1 [Example 51, (Z)-2-(3-(Cyclopentyloxy)-6-(2-fluoro-2-(4-(pyridazin-4-yl)pyrimidin-2-yl)vinyl)-2-(trifluoromethyl)phenyl)-9-(cyclopropylmethyl)-2,9-diazaspiro[5.5]undecane]
≥ 7.70	≥ 7.70	CCN1CCC2(CCCN(c3c(/C=C(\F)c4nccc(-c5ccnnc5)n4)ccc(OC4CCCC4)c3C(F)(F)F)C2)CC1 [Example 53, (Z)-2-(3-(Cyclopentyloxy)-6-(2-fluoro-2-(4-(pyridazin-4-yl)pyrimidin-2-yl)vinyl)-2-(trifluoromethyl)phenyl)-9-ethyl-2,9-diazaspiro[5.5]undecane]
≥ 7.70	≥ 7.70	F/C(=C\c1ccc(Oc2ccccc2F)c(C(F)(F)F)c1N1CCCC2(CCN(CC3CC3)CC2)C1)c1cncc(-c2cnsc2)n1 [Example 56, (Z)-4-(6-(2-(2-(9-(Cyclopropylmethyl)-2,9-diazaspiro[5.5]undecan-2-yl)-4-(2-fluorophenoxy)-3-(trifluoromethyl)phenyl)-1-fluorovinyl)pyrazin-2-yl)isothiazole]
≥ 7.70	≥ 7.70	F/C(=C\c1ccc(Oc2ccccc2F)c(C(F)(F)F)c1N1CCCC2(CCN(CC3CC3)CC2)C1)c1cncc(N2CC(F)(F)C2)n1 [Example 57, (Z)-9-(Cyclopropylmethyl)-2-(6-(2-(6-(3,3-difluoroazetidin-1-yl)pyrazin-2-yl)-2-fluorovinyl)-3-(2-fluorophenoxy)-2-(trifluoromethyl)phenyl)-2,9-diazaspiro[5.5]undecane]
